Assay results reported in patent US12215162B2, “BAFF-R targeted chimeric antigen receptor-modified T-cells and uses thereof” (CITY OF HOPE, priority 2016, dated 2025).

Columns and labels:
SP49 = settings: 100 nM ibrutinib; cited from earlier work
SP49-IR = settings: 100 nM ibrutinib; cited from earlier work
[1] = test system: RS4; 11 (acute lymphoblastic leukemia, ALL); test: In vivo RS4;11 ALL tumor model, antibody treatment; parameters: species or system NSG mice; settings: 200 μg antibody + NK-92-176V cells + IL-2 IV
Source text: FIG. 4A is a schematic showing treatment schedule following Day 0 tumor challenge with minimum lethal dose of tumors. Treatments were given by IV tail vein injections. FIGS. 4B and 4C are images showing chimeric antibodies targeting human BAFF-R elicited in vivo therapeutic effects against B-cell tumors. Bioluminescence images of mice challenged with luciferase-expressing tumors: JeKo-1 (MCL) (FIG. 4B) or RS4; 11 (ALL) (FIG. 4C). Experimental groups received treatment of chimeric BAFF-R mAbs (C55 or C90, as indicated). Control group mice received PBS, NK cells alone, or rituximab on the same schedule. Data are representative of three independent experiments.
(§1) In vivo studies. For tumor models, stable, luciferase-expressing tumors lines were established for bioluminescent imaging in mouse models. Briefly, a luciferase gene was introduced into tumor lines by a lentivirus gene delivery system (pLenti7.3/V5-DEST Gateway Vector Kit, Life Technologies, Carlsbad, CA). The minimum lethal dose per mouse was determined for each tumor cell line by dose titration. Tumor cells were injected intravenously (IV) and mice were monitored by in vivo bioluminescence imaging for minimum tumor dose to ensure engraftment. Minimum lethal tumor doses were 1×10^6 JeKo-1, 5×10^5 RS4; 11, 5×10^5 JeKo-1-CD20-KO, or 2.5×10^4 Z-138 cells. […]

JeKo-1-CD20-KO clone 25 = test: ADCC against rituximab-resistant JeKo-1-CD20-KO; type: cell-based, human; settings: NK cells E:T 20:1
Description: FIGS. 5A, 5B and 5C are images or graphs showing chimeric BAFF-R antibodies induce ADCC on drug resistant lymphoma models in vitro. FIG. 5A is a scatterplot of FACS analysis showing CD20 binding on JeKo-1 cells following CRISPR/HDR knock-out of CD20 gene. CD20 expression on selected CD20−/−clone #25 compared to WT JeKo-1. ADCC effects measured by chromium-51 release after incubation with C55, C90, or rituximab and effectors NK cells (E:T=20:1). Percentage of cell specific lysis of target cells: rituximab-resistant JeKo-1-CD20-KO (FIG. 5B) and ibrutinib-resistant Z-138 and SP49-IR (FIG. 5C). All data are representative of two or more identical experiments. Data are shown as the mean±s.d. of triplicate samples. *P<0.05 compared with NK cells by two-tailed Student's t-test.
Cytotoxicity assays. Target cells (L cells, human tumor lines, primary patient samples) were labeled with chromium-51 (51Cr, Perkin Elmer, Waltham, MA) for a 51Cr release assay. Briefly, antibodies and effectors (NK cells or complement serum standard [Sigma Aldrich, St. Louis, MO]), were added to labeled target cells and incubated up to 18 hours. NK cells were enriched from PBMC (NK cell enrichment kit, Stemcell Technologies, Vancouver, Canada). 51Cr released into supernatant was detected with a Wizard Automatic Gamma Counter (Perkin Elmer).
Generation of JeKo-1-CD20-KO. […]

JeKo-1-CD20-KO = test: In vivo JeKo-1-CD20-KO tumor model, antibody treatment; parameters: species or system NSG mice; settings: Day 20
Source text: FIGS. 6A and 6B are images and FIG. 6C are graphs showing chimeric antibodies targeting human BAFF-R elicited in vivo therapeutic effects against drug resistant B-cell tumors. Bioluminescence images of mice challenged with luciferase-expressing tumors JeKo-1-CD20-KO cells (FIG. 6A) or ibrutinib-resistant Z-138 cells (FIG. 6B) followed by antibody treatments as in FIG. 4. Control group mice received PBS, NK cells alone, or rituximab on the same schedule. […] Tumor free rate and survival differences between experimental and all control groups were analyzed by log-rank test (** P<0.001). Data are representative of three independent experiments.
as §1

[2] = test system: RS4 acute lymphoblastic lymphoma; test: Chromium release ADCC on RS4; type: cell-based, human; settings: NK cells E:T 20:1, 6 hours
Description: FIGS. 21A and 21B are graphs showing humanized antibodies C90-4 and C90-5 analyzed for their specific cytotoxicity of various lymphoma lines. For FIG. 21A, JeKo-1, Z138, and RS4 were subjected to a chromium release assay with humanized antibodies C90-4 and C90-5. Antibodies were administered to the cell lines at concentrations between 0 to 5 μg/mL and incubated for 6 hours with NK cells at an E:T ratio of 20:1. The cell supernatants were analyzed for their chromium content. For FIG. 21B, LY-10, MEC-2, RL, and Raji lymphoma lines were subjected to a chromium release assay with humanized antibodies C90-4 and C90-5. Antibodies were administered to the cell lines at 5 μg/mL and incubated for 6 hours with NK cells at an E:T ratio of 20:1. The cell supernatants were analyzed for their chromium content.
The two variants were further assessed in their ability to initiate ADCC. The antibodies were administered in varying concentration to JeKo-1, Z138, and RS4 lines after a period of chromium uptake. The cells and antibodies were incubated with effector NK cells. The supernatant was analyzed 6 hours post treatment (FIG. 21A).

Row | Molecule | viable cells (SP49) | viable cells (SP49-IR) | tumor growth (bioluminescence) [1] | sensitivity to antibody-mediated cytotoxicity (JeKo-1-CD20-KO clone 25) | tumor burden by bioluminescent imaging (JeKo-1-CD20-KO) | activity (ADCC) [2]
1 | C=CC(=O)N1CCC[C@@H](n2nc(-c3ccc(Oc4ccccc4)cc3)c3c(N)ncnc32)C1 [ibrutinib] | ~5% | > 90% |  |  |  | 
2 | rituximab [reference compound] |  |  | no inhibition | insensitive | substantial tumor burden | not active
